Reference: ChEMBL document CHEMBL1145136, “Molecular determinants of steroid inhibition for the mouse constitutive androstane receptor” (J Med Chem, 2003)

Tests used:
[1] = target: T1, mouse constitutive androstane receptor (mCAR, NR1I3) (Mus musculus, UniProt O35627); assay: Inhibition of mouse constitutive androstane receptor (mCAR) activity at 10 uM was determined as percent remaining activity; conditions: read-out: Remaining activity
T1 sequence (O35627 whole entry): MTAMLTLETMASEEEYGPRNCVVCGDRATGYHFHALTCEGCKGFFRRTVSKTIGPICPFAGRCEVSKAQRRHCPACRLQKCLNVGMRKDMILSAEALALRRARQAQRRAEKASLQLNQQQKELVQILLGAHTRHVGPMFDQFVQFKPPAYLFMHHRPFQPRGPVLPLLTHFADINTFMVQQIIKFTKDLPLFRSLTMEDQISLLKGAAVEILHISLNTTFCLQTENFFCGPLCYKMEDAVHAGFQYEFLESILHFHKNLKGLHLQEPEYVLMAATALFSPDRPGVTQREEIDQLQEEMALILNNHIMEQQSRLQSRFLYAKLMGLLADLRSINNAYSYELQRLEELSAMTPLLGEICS

[2] = target: T2, Nuclear receptor subfamily 1 group I member 3 (Mus musculus, UniProt O35627); assay: Inhibitory concentration against mouse constitutive androstane receptor (mCAR) activity was determined as pIC50
T2 sequence (O35627 whole entry): T1 sequence (O35627 whole entry)

[3] = target: T2, Nuclear receptor subfamily 1 group I member 3; assay: Inhibitory concentration against mammalian m-constitutive androstane receptor (mCAR) activity

For CC12CCC3C(CCC4=CC(=O)[C@H](O)CC43C)C1CCC2=O (stereo partly specified), the activity at 10 µM [1] was 41%.

In the case of CC12C=CCC1C1CCC3=CC(=O)CCC3(C)C1CC2 (stereo unspecified), the IC50 [2] is reported as 0.794 µM and the activity at 10 µM [1] is reported as 7%.

CC12CCC3C(C1CCC2=O)[C@H](O)CC1=CC(=O)CCC13C (stereo partly specified) showed an activity at 10 µM [1] of 97%.

With CC12CCC3C(CC[C@H]4CC=CCC34C)C1CCC2=O (stereo partly specified) the activity at 10 µM [1] was 42%.

Work on CC12C=CCC1C1CC[C@H]3C[C@H](O)CCC3(C)C1CC2 (stereo partly specified) yielded an activity at 10 µM [1] of 4%.

CC12C=CCC1C1CC[C@H]3CC(=O)CCC3(C)C1CC2 (stereo partly specified) showed an activity at 10 µM [1] of 5%.

CC12CCC3C(C[C@@H](O)C4=CC(=O)CCC43C)C1CCC2=O (stereo partly specified) gave an activity at 10 µM [1] of 89%.

In the case of CC12CCC3C(CCC4=C[C@H](O)CCC43C)C1CCC2=O (stereo partly specified), the activity at 10 µM [1] is reported as 66%.

CC12CCC(=O)C=C1CCC1C2CCC2(C)C1CC[C@@H]2C(=O)O (stereo partly specified) gave an IC50 [2] of 39.8 µM and an activity at 10 µM [1] of 81%.

For CC12CCC3C(CCC4=CC(=O)CCC43C)C1C[C@@H](O)C2=O (stereo partly specified), the activity at 10 µM [1] was 62%.

C[C@]12CCC(=O)C=C1CC[C@@H]1[C@@H]2[C@@H](O)C[C@]2(C)C(=O)CC[C@@H]12 showed an activity at 10 µM [1] of 83%.

Work on C[C@@]12CCC[C@H]1[C@@H]1CC[C@H]3C[C@H](O)CC[C@]3(C)[C@H]1CC2 yielded an activity at 10 µM [1] of 4%.

Molecule C[C@@]12CCC[C@H]1[C@@H]1CC[C@@H]3C[C@H](O)CC[C@]3(C)[C@H]1CC2 has an activity at 10 µM [1] of 4%.

With C[C@@]12CCC[C@H]1[C@@H]1CCc3cc(O)ccc3[C@H]1CC2 the activity at 10 µM [1] was 56%.

In the case of CC12CC[C@H]3[C@@H](CC[C@H]4CC(=O)CCC43C)[C@@H]1CCC2=O (stereo partly specified), the IC50 [2] is reported as 5.01 µM and the activity at 10 µM [1] is reported as 34%.

Work on CC12CC[C@@H]3C4CC[C@@H](O)C[C@@H]4CC[C@H]3[C@@H]1CCC2=O (stereo partly specified) yielded an activity at 10 µM [1] of 91%.

CC12CC[C@@H]3C4CCC(=O)C[C@@H]4CC[C@H]3[C@@H]1CCC2=O (stereo partly specified) was tested, and the activity at 10 µM [1] was 80%.

CC12CC[C@H]3[C@@H](CC[C@@H]4CCCCC43C)[C@@H]1CCC2=O (stereo partly specified) gave an activity at 10 µM [1] of 45%.

Molecule CCC1CC[C@H]2[C@@H]3CC[C@H]4CC(=O)CCC4(C)[C@H]3CCC12C (stereo partly specified) has an activity at 10 µM [1] of 52%.

CC12CCC(=O)C[C@@H]1CC[C@@H]1[C@@H]2CCC2(C)[C@@H](O)CC[C@@H]12 (stereo partly specified) gave an activity at 10 µM [1] of 53%.

CC12CCC[C@H]1[C@@H]1CC[C@H]3CC(=O)CCC3(C)[C@H]1CC2 (stereo partly specified) showed an activity at 10 µM [1] of 12%.

CC12CC[C@@H](O)C[C@@H]1CC[C@@H]1[C@@H]2CCC2(C)[C@@H](O)CC[C@@H]12 (stereo partly specified) gave an activity at 10 µM [1] of 63%.

With CC12CCC3C(CC[C@H]4CC(=O)C=CC34C)C1CCC2=O (stereo partly specified) the activity at 10 µM [1] was 90%.

CC12CCC3C(C[C@H](O)C4=CC(=O)CCC43C)C1CCC2=O (stereo partly specified) was tested, and the activity at 10 µM [1] was 81%.

CC12C=CCC1C1CC[C@H]3C[C@@H](O)CCC3(C)C1CC2 (stereo partly specified) showed an activity at 10 µM [1] of 28%.

For CC(=O)[C@H]1CC[C@H]2[C@@H]3CC[C@H]4CC(=O)CC[C@]4(C)[C@H]3CC[C@]12C, the activity at 10 µM [1] was 73%.

Molecule CC(=O)[C@H]1CC[C@H]2[C@@H]3CC[C@@H]4CC(=O)CC[C@]4(C)[C@H]3CC[C@]12C has an activity at 10 µM [1] of 20%.

C[C@]12CCC(=O)C=C1CCC1[C@@H]2C(=O)C[C@@]2(C)[C@H]1CC[C@]2(O)C(=O)CO (single isomer, unassigned) [CORTISONE] was tested, and the activity at 10 µM [1] was 80%.

Molecule C[C@]12CCC(=O)C=C1CCC1[C@@H]2[C@@H](O)C[C@@]2(C)[C@H]1CC[C@]2(O)C(=O)CO (single isomer, unassigned) [HYDROCORTISONE] has an activity at 10 µM [1] of 68%.

Molecule C[C@]12CCC(=O)C=C1CC[C@@H]1[C@@H]2CC[C@]2(C)C(=O)CC[C@@H]12 [ANDROSTENEDIONE] has an activity at 10 µM [1] of 56%.

C[C@]12C=CC(=O)C=C1CC[C@@H]1[C@@H]2CC[C@]2(C)C(=O)CC[C@@H]12 [ANDROSTENEDONE] showed an activity at 10 µM [1] of 89%.

Molecule C[C@]12CC[C@@H](O)C[C@@H]1CC[C@@H]1[C@@H]2CC[C@]2(C)C=CC[C@@H]12 [ANDROSTENOL] has an IC50 [3] of 0.25 µM.

With CC(=O)[C@H]1CC[C@H]2[C@@H]3CC[C@H]4C[C@H](O)CC[C@]4(C)[C@H]3CC[C@]12C [BREXANOLONE] the activity at 10 µM [1] was 19%.

With C[C@]12C[C@H](O)[C@H]3[C@@H](CCC4=CC(=O)CC[C@@]43C)[C@@H]1CC[C@@H]2C(=O)CO [CORTICOSTERONE] the activity at 10 µM [1] was 80%.

For C[C@]12CC[C@H]3[C@@H](CCC4=CC(=O)CC[C@@]43C)[C@@H]1CC[C@@H]2C(=O)CO [DESOXYCORTICOSTERONE], the activity at 10 µM [1] was 58%.

In the case of C[C@@H]1C[C@H]2[C@@H]3CCC4=CC(=O)C=C[C@]4(C)[C@@]3(F)[C@@H](O)C[C@]2(C)[C@@]1(O)C(=O)CO [DEXAMETHASONE], the activity at 10 µM [1] is reported as 75%.

C[C@]12CC[C@H]3[C@@H](CCC4=CC(=O)CC[C@@]43C)[C@@H]1CC[C@H]2O [EPITESTOSTERONE] gave an activity at 10 µM [1] of 73%.

Molecule C[C@]12CCC(=O)C(O)=C1CC[C@@H]1[C@@H]2CC[C@]2(C)C(=O)CC[C@@H]12 [FORMESTANE] has an activity at 10 µM [1] of 53%.

With C[C@]12CC[C@H](O)CC1=CC[C@@H]1[C@@H]2CC[C@]2(C)C(=O)CC[C@@H]12 [PRASTERONE] the activity at 10 µM [1] was 71%.

Molecule CC(=O)[C@H]1CC[C@H]2[C@@H]3CC=C4C[C@@H](O)CC[C@]4(C)[C@H]3CC[C@]12C [PREGNENOLONE] has an activity at 10 µM [1] of 95%.

For C[C@]12CCC(=O)C[C@@H]1CC[C@@H]1[C@@H]2CC[C@]2(C)[C@@H](O)CC[C@@H]12 [STANOLONE], the activity at 10 µM [1] was 69%.

For C[C@]12CC[C@H]3[C@@H](CCC4=CC(=O)CC[C@@]43C)[C@@H]1CC[C@@H]2O [TESTOSTERONE], the IC50 [3] was 30 µM and the activity at 10 µM [1] was 78%.
